Entries after “also recorded” stand apart in the source; their conditions may differ. Where no end group is shown, it is not given here.

Assay [1] deals with Human iPS cells (hiPSCs). Briefly: Neural differentiation of hiPSCs using E-cadherin inhibitors, Nestin immunofluorescence. Conditions: day 7; for number of Nestin positive cells: treated daily, peptides 1 mM, antibody 2 μg/ml. The class given is cell-based. How it is done:
Human iPSCs were differentiated as previously described. Peptides A, B or C were supplemented to the media at a final concentration of 1 mM and E-cadherin neutralising antibody supplemented to the media at 2 μg/ml daily for 6-7 days. The equivalent volume of water was added to cultures as a vehicle control.
All other methodology was performed as outlined above in connection with neural differentiation and characterisation of resultant neural progenitor cells (NPCs). […] Accordingly, supplementation in this manner may be a preferred embodiment of methods of the invention as practiced upon pluripotent stem cells such as iPSCs.
To initiate differentiation confluent undifferentiated cells were dissociated and seeded at a low density onto gelatin coated wells in differentiation medium supplemented with/without E-cadherin-inhibitors for 7 days. To identify the phenotype of these cells, cultures were harvested at day 7 and immunofluorescent analysis of the neural progenitor cell marker Nestin was performed (FIG. 10).

In assay [2] the test system is Human ES cells. Briefly: Assessment of non-neuronal lineages in directed neural differentiation of human ES cells. It is filed as cell-based. Here is the method: (§1) Confluent undifferentiated cells were dissociated and seeded at a low density (2.0E5 cells/962 mm2) onto 0.1% w/v gelatin coated wells in differentiation medium alone (DMEM/F-12+GlutaMAX (Invitrogen), 10% Knockout Serum Replacement (KSR) (Invitrogen), Penicillin/Streptomycin (1×) (PAA) for 24 hours prior to media supplementation with an E-cadherin inhibiting peptide (H-Ser-Trp-Glu-Leu-Tyr-Tyr-Pro-Leu-Arg-Ala-Asn-Leu-NH2, >95% purity, acetate salt background) (Bachem) as published in Devemy & Blashuk (2009). Peptide was reconstituted at 30 mg/ml in sterile ddH2O (20 mM stock concentration), with a working concentration 500 μM for inhibition of human E-cadherin. Media (and peptide) were replenished every 2 days for 6-7 days. After this time peptide is no longer necessary. Morphological analysis and immunostaining with markers for neural precursor cells and more mature neural cells were performed during the course of the differentiation protocol.
Cells were fixed in 4% w/v paraformaldehyde and stained in situ (Mohamet et al, 2010). […] The cells were viewed on a Leica DM500 fluorescence microscope. […]

Assay [3] has as its system Human ES cells (HUES7, H9, MAN7). Briefly: Differentiation of human ES cells towards neural precursor cells in adherent culture, immunofluorescence of neural precursor markers. The class given is cell-based. How it is done:
Human ES cell lines, HUES7 (passage 39-44), H9 (passage 50-55) and MAN7 (passage 18-21) were grown under adherent feeder-free culture conditions prior to induction of differentiation. Cells were cultured in STEMPRO® (Invitrogen—complete medium) which comprises; DMEM/F-12+GlutaMAX, 8 ng/ml FGF-basic factor (Peprotec), STEMPRO® hESC SFM Growth Supplement (1×), 1.8% BSA, and 0.1 Mm 2-mercaptoethanol. Cells were cultured on either Matrigel™- (BD Biosciences 356234) or Geltrex™- (Invitrogen 12760-021) coated tissue culture grade plates. Matrigel-treated plates were coated with pre-diluted Matrigel™ (1:100 in DMEM/F12 media) and incubated at room temperature prior to use. Geltrex™-coated plates were coated with pre-diluted Geltrex™ (1:29 in DMEM/F12 media) and incubated for 1 h at 37° C. prior to use. Media was replenished every 24 h and cells were passaged upon confluency. All cells were propagated for a minimum of two passages as feeder-free cultures to exclude unwanted residual mouse fibroblast feeder cells. Cells were dissociated either using trypsin-EDTA (Sigma) or Collagenase IV (Sigma-1 mg/ml final concentration) dependent on the ES cell line used.
as §1, with “Morphological analysis and immunostaining with markers for neural precursor cells and more mature neural cells were performed during the course of the differentiation protocol.” left out
Cells were fixed in 4% w/v paraformaldehyde and stained in situ (Mohamet et al, 2010). […] The cells were viewed on a Leica DM500 fluorescence microscope.

For assay [4], the system named is Human iPS cells (hiPSCs). Briefly: Effect of E-cadherin inhibitors on cell-cell contact in pluripotent hiPSCs (phase contrast). Conditions: 48 h in MTesR complete media, adherent feeder free. The class given is cell-based. How it is done: Human iPS cells (hiPSCs) were grown under adherent feeder-free culture conditions. All cells were propagated for a minimum of two passages as feeder-free cultures to exclude unwanted residual mouse fibroblast feeder cells. Cells were cultured in MTesR complete medium (Stem Cell Technologies). Cells were cultured on Matrigel™- (BD Biosciences 356234) coated tissue culture grade plates. Matrigel-treated plates were coated with pre-diluted Matrigel™ (1:100 in DMEM/F12 media) and incubated at room temperature prior to use. Media was replenished every 24 h and cells were passaged upon confluency. Cells were dissociated using trypsin-EDTA.
Human iPS cells were grown under standard adherent feeder-free culture conditions prior to induction of differentiation.

Assay [5] concerns the target T1, human E-cadherin (human, UniProt P12830 155-882).
T1 sequence: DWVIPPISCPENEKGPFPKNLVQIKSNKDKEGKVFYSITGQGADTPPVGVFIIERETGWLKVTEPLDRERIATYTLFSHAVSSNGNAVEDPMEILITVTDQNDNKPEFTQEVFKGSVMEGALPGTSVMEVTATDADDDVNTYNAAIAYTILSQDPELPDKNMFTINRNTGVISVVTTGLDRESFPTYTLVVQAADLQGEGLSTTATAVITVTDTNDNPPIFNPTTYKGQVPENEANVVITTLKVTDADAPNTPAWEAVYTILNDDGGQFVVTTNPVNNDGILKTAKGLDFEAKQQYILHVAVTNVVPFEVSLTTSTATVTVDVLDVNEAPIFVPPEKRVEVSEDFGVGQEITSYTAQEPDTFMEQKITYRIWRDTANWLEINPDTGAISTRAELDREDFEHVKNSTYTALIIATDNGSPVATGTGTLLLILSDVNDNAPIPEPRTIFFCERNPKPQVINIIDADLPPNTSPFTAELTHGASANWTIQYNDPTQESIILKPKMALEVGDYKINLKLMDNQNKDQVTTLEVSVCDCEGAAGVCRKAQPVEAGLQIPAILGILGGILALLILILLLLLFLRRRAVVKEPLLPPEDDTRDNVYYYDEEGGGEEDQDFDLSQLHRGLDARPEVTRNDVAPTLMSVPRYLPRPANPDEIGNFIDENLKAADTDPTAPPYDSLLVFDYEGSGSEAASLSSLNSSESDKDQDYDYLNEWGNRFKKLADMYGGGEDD
Briefly: cell-based or functional assay.

“SWELYYPLRANL (SWELYYPLRANL-NH2; also: acetate salt) [Peptide A, Study 1 used H-Ser-Trp-Glu-Leu-Tyr-Tyr-Pro-Leu-Arg-Ala-Asn-Leu-NH2 (Bachem, acetate salt background)]”: the “number of Nestin positive cells” value in assay [1] was determined as 94%; in assay [3] (media supplemented with peptide 500 μM, 7 days of differentiation, n=3), 95.3%. For the same molecule, in assay [2] (cells harvested on day 15, n=3), the “α smooth muscle actin (mesoderm) expression” value is “only detected in 1 cell out of all cultures assessed”. Moreover, the “staining of endoderm marker Forkhead box protein A2 (foxA2)” value in assay [2] (differentiated for 15 days) is “no positive staining”. Moreover, the “undifferentiated colonies (phase contrast)” value in assay [3] (cultured 6-7 days in media supplemented with peptide) is given as “no undifferentiated colonies were observed”. Also, the “NESTIN and VIMENTIN expression (immunofluorescence)” value in assay [3] (peptide 500 μM, harvested at day 7) is given as “homogenous expression”.
Turning to “SWELYYPL (Inhibitory peptide) [Peptide C]”, the “Nestin positive cells, one experiment (variable results)” value in assay [1] (peptide 1 mM, one experiment only) is on record as “approx. 50%”. In assay [1], the “number of Nestin positive cells” value was determined as 76%. Also, the “loss of cell-cell contact, proportion of cells” value in assay [4] is on record as 50-60%.
“E-cadherin neutralising antibody (SHE78.7 clone, Invitrogen 13-5700)”: the loss of cell-cell contact in hiPSCs (phase contrast, 48 h, antibody 2 ug/ml) in assay [5] was > 85%.
As to SRELYYPLRANL [Peptide B, control], in assay [1], the “number of Nestin positive cells” value is on record as 33%. Moreover, the “culture morphology / cell-cell contacts” value in assay [4] was “retain the compacted morphology typical of hiPSCs; also recorded: retain the compacted morphology of hiPSCs, without loss of cell-cell contacts”.
Consider SWELYYPLRANL (not fully specified) [Peptide A (SWELYYPLRANL)], for which the “loss of cell-cell contact in hiPSCs (phase contrast, 48 h, peptide 1 mM)” value in assay [5] was > 85%.

The values are drawn from US20150291933A1, “CELL DIFFERENTIATION” (THE UNIVERSITY OF MANCHESTER, priority 2012, published 2015).
